For 28 compounds, IC50 results are on record in patent US20090181963A1, “3H-[1,2,3]TRIAZOLO[4,5-D]PYRIMIDINE COMPOUNDS, THEIR USE AS mTOR KINASE AND PI3 KINASE INHIBITORS, AND THEIR [sequence]” (Wyeth, priority 2008, published 2009).

One assay has as its target PI3 Kinase α (Homo sapiens, UniProt P42336). Description: Fluorescence polarization assay for PI3K (PI3 Kinase α). The assay is classed as biochemical. The note with it: diC8-PI(4,5)P2 substrate, 25 μM ATP, one hour at 25° C. (In fluorescence polarisation assays a small probe gives low polarisation when free and higher when bound to something large.)
For another assay, the target named is PI3 Kinase γ (Homo sapiens, UniProt P48736). Description: Fluorescence polarization assay for PI3K (PI3 Kinase γ). The format is biochemical. The note with it: diC8-PI(4,5)P2 substrate, 25 μM ATP, one hour at 25° C.
PI3 Kinase γ, sequence (P48736 whole entry): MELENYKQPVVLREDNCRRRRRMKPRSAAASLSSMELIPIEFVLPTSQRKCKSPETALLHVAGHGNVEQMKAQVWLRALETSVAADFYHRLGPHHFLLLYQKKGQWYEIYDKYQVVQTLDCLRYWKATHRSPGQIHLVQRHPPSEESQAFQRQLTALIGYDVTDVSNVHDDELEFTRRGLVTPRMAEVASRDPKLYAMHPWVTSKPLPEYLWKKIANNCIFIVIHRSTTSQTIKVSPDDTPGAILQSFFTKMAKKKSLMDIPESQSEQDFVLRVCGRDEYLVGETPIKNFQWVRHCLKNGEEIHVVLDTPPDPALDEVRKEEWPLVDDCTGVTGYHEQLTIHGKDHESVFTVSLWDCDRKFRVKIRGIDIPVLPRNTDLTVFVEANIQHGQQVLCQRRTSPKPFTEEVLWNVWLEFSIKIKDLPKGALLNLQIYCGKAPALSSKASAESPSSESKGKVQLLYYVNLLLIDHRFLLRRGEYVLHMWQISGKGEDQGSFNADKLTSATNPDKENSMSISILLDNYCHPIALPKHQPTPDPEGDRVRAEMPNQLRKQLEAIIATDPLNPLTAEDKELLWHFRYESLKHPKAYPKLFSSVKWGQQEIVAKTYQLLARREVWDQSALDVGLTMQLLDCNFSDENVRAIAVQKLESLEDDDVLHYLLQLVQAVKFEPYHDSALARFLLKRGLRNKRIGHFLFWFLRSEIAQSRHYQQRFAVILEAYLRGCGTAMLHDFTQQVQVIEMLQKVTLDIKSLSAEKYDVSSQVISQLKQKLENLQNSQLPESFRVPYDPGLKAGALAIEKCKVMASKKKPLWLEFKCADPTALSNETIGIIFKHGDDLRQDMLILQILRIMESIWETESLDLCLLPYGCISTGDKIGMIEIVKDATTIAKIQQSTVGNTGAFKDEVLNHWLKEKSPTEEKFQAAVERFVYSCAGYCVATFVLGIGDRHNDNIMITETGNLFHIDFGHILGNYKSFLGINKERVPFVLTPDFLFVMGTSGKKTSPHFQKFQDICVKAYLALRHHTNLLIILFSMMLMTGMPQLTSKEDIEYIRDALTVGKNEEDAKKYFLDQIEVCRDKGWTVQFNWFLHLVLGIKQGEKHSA

PI3 Kinase α, sequence (P42336 whole entry): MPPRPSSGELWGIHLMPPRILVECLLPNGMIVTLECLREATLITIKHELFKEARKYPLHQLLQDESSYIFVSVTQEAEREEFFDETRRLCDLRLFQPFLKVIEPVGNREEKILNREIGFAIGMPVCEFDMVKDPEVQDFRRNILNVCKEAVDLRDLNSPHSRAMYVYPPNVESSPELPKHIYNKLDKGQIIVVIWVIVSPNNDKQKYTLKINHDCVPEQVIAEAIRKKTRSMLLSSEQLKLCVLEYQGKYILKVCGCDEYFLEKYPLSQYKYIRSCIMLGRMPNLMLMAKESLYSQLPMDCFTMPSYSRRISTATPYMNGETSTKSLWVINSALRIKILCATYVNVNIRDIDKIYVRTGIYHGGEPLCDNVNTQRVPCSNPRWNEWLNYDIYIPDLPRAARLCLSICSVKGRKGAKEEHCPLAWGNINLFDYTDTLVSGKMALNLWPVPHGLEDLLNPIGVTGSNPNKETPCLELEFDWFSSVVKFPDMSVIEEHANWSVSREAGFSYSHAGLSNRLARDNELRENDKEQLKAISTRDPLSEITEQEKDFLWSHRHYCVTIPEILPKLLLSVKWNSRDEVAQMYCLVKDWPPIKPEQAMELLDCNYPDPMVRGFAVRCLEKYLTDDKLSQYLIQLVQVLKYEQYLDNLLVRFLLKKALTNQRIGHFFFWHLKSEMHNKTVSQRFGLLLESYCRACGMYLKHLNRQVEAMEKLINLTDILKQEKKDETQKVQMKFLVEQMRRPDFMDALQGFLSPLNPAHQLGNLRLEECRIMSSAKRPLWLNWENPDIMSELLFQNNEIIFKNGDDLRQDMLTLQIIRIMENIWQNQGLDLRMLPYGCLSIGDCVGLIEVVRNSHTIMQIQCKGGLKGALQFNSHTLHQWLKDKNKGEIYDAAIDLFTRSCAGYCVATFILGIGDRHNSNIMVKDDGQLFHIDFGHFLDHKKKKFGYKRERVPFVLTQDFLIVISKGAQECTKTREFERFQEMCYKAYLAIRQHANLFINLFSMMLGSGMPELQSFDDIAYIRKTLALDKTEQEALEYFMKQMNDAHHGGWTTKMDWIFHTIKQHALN
PI3 Kinase α, sequence (P27986 whole entry partner): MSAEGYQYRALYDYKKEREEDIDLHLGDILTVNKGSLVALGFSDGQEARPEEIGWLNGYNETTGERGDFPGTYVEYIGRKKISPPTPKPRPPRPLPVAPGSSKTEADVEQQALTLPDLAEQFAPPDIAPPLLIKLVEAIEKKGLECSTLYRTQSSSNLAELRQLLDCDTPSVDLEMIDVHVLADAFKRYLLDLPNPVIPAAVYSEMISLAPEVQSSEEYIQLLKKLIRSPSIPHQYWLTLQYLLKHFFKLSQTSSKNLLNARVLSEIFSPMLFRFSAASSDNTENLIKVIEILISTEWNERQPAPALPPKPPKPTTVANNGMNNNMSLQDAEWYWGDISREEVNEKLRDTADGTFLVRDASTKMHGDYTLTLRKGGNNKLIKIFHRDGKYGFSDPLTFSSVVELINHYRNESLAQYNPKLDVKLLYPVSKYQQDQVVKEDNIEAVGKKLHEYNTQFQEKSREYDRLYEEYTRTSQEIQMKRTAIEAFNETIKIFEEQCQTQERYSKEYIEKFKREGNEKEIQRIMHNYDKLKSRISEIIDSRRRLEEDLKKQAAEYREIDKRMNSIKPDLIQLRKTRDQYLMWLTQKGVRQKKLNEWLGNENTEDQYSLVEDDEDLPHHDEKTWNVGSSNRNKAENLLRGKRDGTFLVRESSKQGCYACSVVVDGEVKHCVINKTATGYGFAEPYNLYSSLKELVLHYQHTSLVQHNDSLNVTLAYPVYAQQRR

For the compound `CN(C)CCNC(=O)Nc1ccc(-c2nc(N3CCOCC3)c3nnn(C4CCNCC4)c3n2)cc1` [Example 152, 1-(2-(dimethylamino)ethyl)-3-(4-(7-morpholino-3-(piperidin-4-yl)-3H-[1,2,3]triazolo[4,5-d]pyrimidin-5-yl)phenyl)urea], the IC50 is 104 nM against PI3 Kinase α and 392 nM against PI3 Kinase γ.
Take `CC(C)n1nnc2c(N3CCOCC3)nc(-c3ccc(NC(=O)Nc4ccc(CO)cc4)cc3)nc21` [Example 84, 1-(4-Hydroxymethyl-phenyl)-3-[4-(3-isopropyl-7-morpholin-4-yl-3H-[1,2,3]triazolo[4,5-d]pyrimidin-5-yl)-phenyl]-urea]: the IC50 was determined as 3 nM at PI3 Kinase α and 34.5 nM against PI3 Kinase γ.
On the same counts, the results for `CCCCN1CCC(n2nnc3c(N4CCOCC4)nc(-c4ccc(NC(=O)NCCN(C)C)cc4)nc32)CC1` [Example 159, 1-(4-(3-(1-butylpiperidin-4-yl)-7-morpholino-3H-[1,2,3]triazolo[4,5-d]pyrimidin-5-yl)phenyl)-3-(2-(dimethylamino)ethyl)urea] are 166 nM and 685 nM.
The like results for `CCn1nnc2c(N3CCOCC3)nc(-c3ccc(NC(=O)Nc4ccc(C(=O)NCCCN(C)C)cc4)cc3)nc21` [Example 47, N-[3-(dimethylamino)propyl]-4-({[4-(3-ethyl-7-morpholin-4-yl-3H-[1,2,3]triazolo[4,5-d]pyrimidin-5-yl)phenyl]carbamoyl}amino)benzamide] were, in that order, below 2.7 nM and 9 nM.
For `CCn1nnc2c(N3CCOCC3)nc(-c3ccc(NC(=O)Nc4ccncc4)cc3)nc21` [Example 33, 1-[4-(3-ethyl-7-morpholin-4-yl-3H-[1,2,3]triazolo[4,5-d]pyrimidin-5-yl)phenyl]-3-pyridin-4-ylurea], the values for the IC50 on PI3 Kinase α and against PI3 Kinase γ were 3 nM and 19 nM, respectively.
For the compound `NCCCCn1nnc2c(N3CCOCC3)nc(-c3cccc(O)c3)nc21` [Example 204, 3-[3-(4-Aminobutyl)-7-morpholin-4-yl-3H-[1,2,3]triazolo[4,5-d]pyrimidin-5-yl]phenol], the IC50 was 132 nM against PI3 Kinase α and 108 nM on PI3 Kinase γ.
The like results for `Oc1cccc(-c2nc(N3CCOCC3)c3nnn(CCN4CCN(Cc5ccccc5)CC4)c3n2)c1` [Example 114, 3-{3-[2-(4-benzylpiperazin-1-yl)ethyl]-7-morpholin-4-yl-3H-[1,2,3]triazolo[4,5-d]pyrimidin-5-yl}phenol] were, in that order, 255 nM and 982 nM.
The like results for `CCn1nnc2c(N3CCOCC3)nc(-c3ccc(N)cc3)nc21` [Example 32, 4-(3-Ethyl-7-morpholin-4-yl-3H-[1,2,3]triazolo[4,5-d]pyrimidin-5-yl)-phenylamine] were, in that order, 554 nM and 4070 nM.
The like results for `CCCCN1CCN(CCn2nnc3c(N4CCOCC4)nc(-c4cccc(O)c4)nc32)CC1` [Example 107, 3-{3-[2-(4-butylpiperazin-1-yl)ethyl]-7-morpholin-4-yl-3H-[1,2,3]triazolo[4,5-d]pyrimidin-5-yl}phenol] were, in that order, 1040 nM and 2490 nM.
For the compound `CNCCCCn1nnc2c(N3CCOCC3)nc(-c3cccc(O)c3)nc21` [Example 203, 3-{3-[4-(Methylamino)butyl]-7-morpholin-4-yl-3H-[1,2,3]triazolo[4,5-d]pyrimidin-5-yl}phenol], the IC50 against PI3 Kinase α stood at 100 nM; against PI3 Kinase γ, 618 nM.
For the compound `OCc1cncc(-c2nc(N3CCOCC3)c3nnn(C4CCN(Cc5ccccc5)CC4)c3n2)c1` [Example 173, {5-[3-(1-benzylpiperidin-4-yl)-7-morpholin-4-yl-3H-[1,2,3]triazolo[4,5-d]pyrimidin-5-yl]pyridin-3-yl}methanol], the IC50 stood at 570 nM against PI3 Kinase α and 1850 nM at PI3 Kinase γ.
`CCn1nnc2c(N3CCOCC3)nc(-c3ccc(NC(=O)Nc4ccc(N5CCN(C)CC5)cc4)cc3)nc21` [Example 259, 1-[4-(3-ethyl-7-morpholin-4-yl-3H-[1,2,3]triazolo[4,5-d]pyrimidin-5-yl)phenyl]-3-[4-(4-methylpiperazin-1-yl)phenyl]urea]: inhibition on PI3 Kinase γ was half-maximal at 4 nM (IC50). That is a single-digit nanomolar value.
Turning to `CCn1nnc2c(N3CCOCC3)nc(-c3ccc(NC(=O)Nc4ccc(NCc5ccncc5)cc4)cc3)nc21` [Example 252, 1-[4-(3-ethyl-7-morpholin-4-yl-3H-[1,2,3]triazolo[4,5-d]pyrimidin-5-yl)phenyl]-3-{4-[(pyridin-4-ylmethyl)amino]phenyl}urea], the IC50 at PI3 Kinase γ came out at 3.83 nM. This IC50 and that of the compound before are within 1.5-fold of each other.
For `CC(C)n1nnc2c(N3CCOCC3)nc(-c3ccc(NC(=O)Nc4ccc([N+](=O)[O-])cc4)cc3)nc21` [Example 278, 1-{4-[3-(1-methylethyl)-7-morpholin-4-yl-3H-[1,2,3]triazolo[4,5-d]pyrimidin-5-yl]phenyl}-3-(4-nitrophenyl)urea], the IC50 on PI3 Kinase γ was determined as 21.5 nM.
In turn, `CCn1nnc2c(N3CCOCC3)nc(-c3ccc(NC(=O)Nc4ccc(C(=O)N5CCN(C)CC5)nc4)cc3)nc21` [Example 289, 1-[4-(3-ethyl-7-morpholin-4-yl-3H-[1,2,3]triazolo[4,5-d]pyrimidin-5-yl)phenyl]-3-{6-[(4-methylpiperazin-1-yl)carbonyl]pyridin-3-yl}urea] yielded an IC50 against PI3 Kinase γ of 6 nM.
Same read-out and setting: the value for `CCn1nnc2c(N3CCOCC3)nc(-c3ccc(NC(=O)Nc4ccc(NCc5ccc(F)nc5)cc4)cc3)nc21` [Example 254, 1-[4-(3-ethyl-7-morpholin-4-yl-3H-[1,2,3]triazolo[4,5-d]pyrimidin-5-yl)phenyl]-3-(4-{[(6-fluoropyridin-3-yl)methyl]amino}phenyl)urea] was 7.5 nM; that for `CCn1nnc2c(N3CCOCC3)nc(-c3ccc(NC(=O)Nc4ccc(NC(=O)NCCOC)cc4)cc3)nc21` [Example 276, 1-[4-(3-ethyl-7-morpholin-4-yl-3H-[1,2,3]triazolo[4,5-d]pyrimidin-5-yl)phenyl]-3-(4-{[(2-methoxyethyl)carbamoyl]amino}phenyl)urea] was 4.45 nM; that for `CCn1nnc2c(N3CCOC[C@@H]3C)nc(-c3ccc(NC(=O)Nc4ccc(C(=O)NCCN5CCCCC5)cc4)cc3)nc21` [Example 284, 4-{[(4-{3-ethyl-7-[(3S)-3-methylmorpholin-4-yl]-3H-[1,2,3]triazolo[4,5-d]pyrimidin-5-yl}phenyl)carbamoyl]amino}-N-(2-piperidin-1-ylethyl)benzamide] was 4.35 nM.
As to `CCn1nnc2c(N3CCOCC3)nc(-c3ccc(NC(=O)Nc4ccc([N+](=O)[O-])cc4)cc3)nc21` [Example 247, 1-[4-(3-ethyl-7-morpholin-4-yl-3H-[1,2,3]triazolo[4,5-d]pyrimidin-5-yl)phenyl]-3-(4-nitrophenyl)urea], it took 15 nM to reach half-maximal inhibition against PI3 Kinase γ (IC50).
Same read-out and setting: the value for `CCn1nnc2c(N3CCOCC3)nc(-c3ccc(NC(=O)Nc4ccc(C(=O)OC)nc4)cc3)nc21` [Example 287, Methyl 5-({[4-(3-ethyl-7-morpholin-4-yl-3H-[1,2,3]triazolo[4,5-d]pyrimidin-5-yl)phenyl]carbamoyl}amino)pyridine-2-carboxylate] was 91.5 nM.
On the same count and under the same terms, the same measure for `CCn1nnc2c(N3CCOC[C@@H]3C)nc(-c3ccc(NC(=O)Nc4ccc(C(=O)N5CCC(N(C)C)CC5)cc4)cc3)nc21` [Example 281, (S)-1-(4-(4-(dimethylamino)piperidine-1-carbonyl)phenyl)-3-(4-(3-ethyl-7-(3-methylmorpholino)-3H-[1,2,3]triazolo[4,5-d]pyrimidin-5-yl)phenyl)urea]: 2.8 nM; for `CCn1nnc2c(N3CCOCC3)nc(-c3ccc(NC(=O)Nc4ccc(NC(=O)N5CCOCC5)cc4)cc3)nc21` [Example 263, N-[4-({[4-(3-ethyl-7-morpholin-4-yl-3H-[1,2,3]triazolo[4,5-d]pyrimidin-5-yl)phenyl]carbamoyl}amino)phenyl]morpholine-4-carboxamide]: 3.1 nM.
Turning to `CC(C)n1nnc2c(N3CCOCC3)nc(-c3ccc(NC(=O)Nc4ccc(NS(C)(=O)=O)cc4)cc3)nc21` [Example 279, N-[4-({[4-(3-isopropyl-7-morpholin-4-yl-3H-[1,2,3]triazolo[4,5-d]pyrimidin-5-yl)phenyl]carbamoyl}amino)phenyl]methanesulfonamide], on PI3 Kinase γ, the IC50 was 12 nM.
The same measure, in the same setting: the same measure for `CCn1nnc2c(N3CCOC[C@@H]3C)nc(-c3ccc(NC(=O)Nc4ccc(C(=O)NCCN5CCCC5)cc4)cc3)nc21` [Example 283, 4-{[(4-{3-ethyl-7-[(3S)-3-methylmorpholin-4-yl]-3H-[1,2,3]triazolo[4,5-d]pyrimidin-5-yl}phenyl)carbamoyl]amino}-N-(2-pyrrolidin-1-ylethyl)benzamide]: 3.35 nM.
On to `CC(C)n1nnc2c(N3CCOCC3)nc(-c3ccc(NC(=O)Nc4ccc(N5CCN(C)CC5)cc4)cc3)nc21` [Example 277, 1-{4-[3-(1-methylethyl)-7-morpholin-4-yl-3H-[1,2,3]triazolo[4,5-d]pyrimidin-5-yl]phenyl}-3-[4-(4-methylpiperazin-1-yl)phenyl]urea], for which the IC50 against PI3 Kinase γ is 5.5 nM.
On the same count and under the same terms, the same measure for `CC(C)n1nnc2c(N3CCOCC3)nc(-c3ccc(NC(=O)Nc4ccc(C(=O)N5CCN(C)CC5)cc4)cc3)nc21` [Example 257, 1-{4-[3-(1-methylethyl)-7-morpholin-4-yl-3H-[1,2,3]triazolo[4,5-d]pyrimidin-5-yl]phenyl}-3-{4-[(4-methylpiperazin-1-yl)carbonyl]phenyl}urea]: 10 nM; for `CCn1nnc2c(N3CCOCC3)nc(-c3ccc(NC(=O)Nc4ccc(NCc5ccc(OC)nc5)cc4)cc3)nc21` [Example 255, 1-[4-(3-ethyl-7-morpholin-4-yl-3H-[1,2,3]triazolo[4,5-d]pyrimidin-5-yl)phenyl]-3-(4-{[(6-methoxypyridin-3-yl)methyl]amino}phenyl)urea]: 5 nM.
Same read-out and setting: the value for `CC(C)n1nnc2c(N3CCOCC3)nc(-c3ccc(NC(=O)Nc4ccc(N)cc4)cc3)nc21` [Example 280, 1-(4-aminophenyl)-3-[4-(3-isopropyl-7-morpholin-4-yl-3H-[1,2,3]triazolo[4,5-d]pyrimidin-5-yl)phenyl]urea] was 7.5 nM.

In general, IC50 refers to the concentration needed to halve the response being measured.
